These results are taken from US20090215882A1, “LYOPHILIZED SOLID TAXANE COMPOSITION, A PROCESS FOR PREPARING SAID SOLID COMPOSITION, A PHARMACEUTICAL FORMULATION AND A KIT FOR SAID FORMULATION” (ERIOCHEM, S.A., priority 2006, published 2009).

Data set [1] can be described thus: Solubility / dissolution in aqueous solutions without organic solvent. Particulars: for dissolution of the intermediate lyophilized taxane in aqueous Solutol HS15 solution: aqueous Solutol HS15 mixture with excipient (mannitol/citric acid or povidone), no organic solvent. Type of data set: physicochemical. On the procedure: The intermediate lyophilized taxane is dissolved in aqueous solutions of polymers or a mixture of said polymers, namely Lutrol™ F68, Solutol™ HS15, povidone K12 PF or K17 PF.

A short description of data set [2]: Chemical degradation of docetaxel in aqueous tensoactive solution. Type of data set: physicochemical. Particulars: pH maintained at values higher than 6.
The nature of data set [3]: Apparent density of the lyophilizate. Type of data set: physicochemical. Particulars: intermediate lyophilized taxane (first lyophilization from organic solvent). The text has this: The apparent density of the lyophilizate is defined as the quotient between the mass of the lyophilization cake in grams and its volume in milliliters.
The apparent density of the lyophilizates has been carefully assessed, and after a great number of experiments the apparent density values in which the technical effects of the invention are possible such as easy reconstitution of said solid composition of lyophilized taxane in an aqueous solution free from organic solvent were obtained. […] In other words, the lower the apparent density of the lyophilization cake, the fastest its dissolution. Also, if the apparent density of the solid composition of lyophilized taxane of the present invention is very low, the concentration of the tensoactive is not enough to maintain said taxane in solution, and said taxane precipitates rapidly.

For data set [4] the following is noted: estimated by the World Health Organization; cited from earlier work.
The conditions of data set [5]: after administration to mammals, compared to polysorbates; cited from earlier work.

Turning to `CC(=O)O[C@@]12CO[C@@H]1C[C@H](O)[C@@]1(C)C(=O)[C@H](O)C3=C(C)[C@@H](OC(=O)[C@H](O)[C@@H](NC(=O)OC(C)(C)C)c4ccccc4)C[C@@](O)([C@@H](OC(=O)c4ccccc4)[C@H]21)C3(C)C` [docetaxel], the “solubility in aqueous solutions” value in data set [1] (commercially available API, absence of added organic solvents) is “not soluble”. Further, in data set [2], the “degradation to 7-epidocetaxel” value is ≤ 60%.
Consider `CC(=O)O[C@@]12CO[C@@H]1C[C@H](O)[C@@]1(C)C(=O)[C@H](O)C3=C(C)[C@@H](OC(=O)[C@H](O)[C@@H](NC(=O)OC(C)(C)C)c4ccccc4)C[C@@](O)([C@@H](OC(=O)c4ccccc4)[C@H]21)C3(C)C` [Example 1, docetaxel], for which the “dissolution of the intermediate lyophilized taxane in aqueous Solutol HS15 solution” value in data set [1] was “readily dissolved”. Also, the apparent density in data set [3] is 0.025 g/mL.
With `CC(=O)O[C@@]12CO[C@@H]1C[C@H](O)[C@@]1(C)C(=O)[C@H](O)C3=C(C)[C@@H](OC(=O)[C@H](O)[C@@H](NC(=O)OC(C)(C)C)c4ccccc4)C[C@@](O)([C@@H](OC(=O)c4ccccc4)[C@H]21)C3(C)C` [Example 2, docetaxel], in data set [1], the “dissolution of the intermediate lyophilized taxane in aqueous Solutol HS15 solution” value is reported as “readily dissolved”. The apparent density in data set [3] is 0.014 g/mL.
polysorbate 80: in data set [4], the maximum daily dose is given as 25 mg/kg of body weight.
On to “Polyethylene glycol-15-hydroxystearate [Solutol HS15]”, for which the histaminic release result in data set [5] was “very low histaminic release”.
